According to patent US20110172217A1, “RING-FUSED MORPHOLINE DERIVATIVE HAVING PI3K-INHIBITING ACTIVITY” (Shionogi & Co., Ltd., priority 2008, published 2011):

Columns and labels:
PI-3 kinase γ [1] = target: T1, PI-3 kinase γ (Homo sapiens, UniProt P48736); experiment: PI3Kγ inhibitory activity (Ki value); format: biochemical; settings: test ATP concentration 10 μmol/L
Method: The PI3Kγ inhibitory activity (Ki value) of a compound was evaluated according to the following procedure:
5 μL of a compound solution containing 10% DMSO and 200 μmol/L of a compound was changed to 5 μL of a compound solution containing 10% DMSO and either 200, 64, 20, 6.4, 2, 0.64, or 0.20 μmol/L of the compound (optionally, this is diluted to a lower concentration). Using a method similar to the method for measuring PI3Kγ inhibitory activity, inhibition ratios were measured in the presence of the compound at 50, 16, 5, 1.6, 0.5, 0.16, and 0.05 μmol/L (optionally, a lower concentration). Then an IC50 value was calculated by a logistic approximation method or the linear regression method using two concentrations that across 50% inhibition. Separately, the ATP concentration in the reaction solution (40 μmol/L ATP, 10 mmol/L MgCl2, 5 mmol/L DTT) at the time of the start of a reaction in the absence of the compound was changed to 80, 40, 20, 10, 5, 2.5, 1.25, or 0.625 μmol/L. Then, HTRF ratios were measured by a similar method. The value obtained by subtracting the HTRF ratio at each ATP concentration from the HTRF ratio in the absence of PI-3 kinase γ was defined as the value obtained by multiplying reaction rate (v) at each ATP concentration with a constant. The Michaelis-Menten constant Km was then calculated by the Lineweaver-Burk plot method. The Ki value of a compound was calculated by the following formula.
Ki=IC50 value/(1+10 μmol/L (test ATP concentration)/Km(μmol/L))

PI-3 kinase γ [2] = target: T1, PI-3 kinase γ; experiment: PI3Kγ inhibitory activity, PI3-kinase HTRF assay (inhibition ratio); format: biochemical; settings: 0.5 h, compound at 50 μmol/L
Method: For each compound synthesized in the above Examples, PI3Kγ inhibitory activity was measured.
The PI3Kγ inhibitory activity of a compound was evaluated using PI3-kinase HTRF™ assay (Millipore) according to the following procedure:
To each well of a testing plate, 5 μL of a compound solution containing 10% DMSO (200 μmol/L or 40 μmol/L as the concentration of the compound), 5 μL of a substrate solution (40 μmol/L phosphatidylinositol (4,5)-bisphosphate, 20 mmol/L MgCl2, 10 mmol/L DTT), and 5 μL of a enzyme solution (80 μg/mL PI-3 kinase γ, 10 mmol/L MgCl2, 5 mmol/L DTT) were added, and then allowed to stand for 10 minutes.
Then, 5 μL of a reaction solution (40 μmol/L ATP, 10 mmol/L MgCl2, 5 mmol/L DTT) was added thereto. After reacting for 30 minutes at room temperature, 5 μL of a solution containing EDTA and biotinylated phosphatidylinositol (3,4,5)-triphosphate were added to quench the reaction.
5 μL of a detection reagent containing a europium-labeled anti-GST antibody, the GST-tagged PH domain, and allophycocyanin-labeled streptavidin was added thereto. After 18 hours, HTRF (excitation wavelength: 330 nm, measured wavelengths: 620 nm and 665 nm) was measured.
HTRF ratio was defined as the value obtained by dividing the amount of fluorescence obtained at the measured wavelength 665 nm by the amount of fluorescence obtained at 620 nm. The HTRF ratio in the absence of a compound was defined as 100% activity and the HTRF ratio in the absence of PI-3 kinase γ was defined as 0% activity to calculate an inhibition ratio which was defined as the PI3Kγ inhibitory activity of a compound at 50 μmol/L or 10 μmol/L.

[3] = Solubility test in artificial intestinal juice pH 6.8; format: physicochemical; settings: kinetic from dmso stock, artificial intestinal juice pH 6.8, 1% DMSO, 25° C.
Method: The solubility of a compound was determined under a condition in which 1% DMSO was added. 10 mmol/L compound solution was prepared using DMSO, and then 6 μL of the compound solution was added to 594 μL of artificial intestinal juice in pH 6.8 (to 250 mL of 0.2 mol/L potassium dihydrogen phosphate reagent solution was added 118 mL of 0.2 mol/L NaOH reagent solution and water to provide a final volume of 1000 mL). After standing at 25° C. for 16 hours, the mixed solution was filtered with suction. The filtrate was diluted twice with methanol/water (1/1), and then a concentration in the filtration was measured with HPLC or LC/MS/MS by the absolute calibration method.

[4] = target: T2, human ether-a-go-go related gene (hERG) channel (Homo sapiens, UniProt Q12809); experiment: hERG test, whole-cell patch-clamp, IKr; format: cell-based; settings: 1 μmol/L compound; HEK293 cell expressing hERG
T2 construct: expressed in transfected cells; host or cells: HEK293
T2 sequence (Q12809 whole entry): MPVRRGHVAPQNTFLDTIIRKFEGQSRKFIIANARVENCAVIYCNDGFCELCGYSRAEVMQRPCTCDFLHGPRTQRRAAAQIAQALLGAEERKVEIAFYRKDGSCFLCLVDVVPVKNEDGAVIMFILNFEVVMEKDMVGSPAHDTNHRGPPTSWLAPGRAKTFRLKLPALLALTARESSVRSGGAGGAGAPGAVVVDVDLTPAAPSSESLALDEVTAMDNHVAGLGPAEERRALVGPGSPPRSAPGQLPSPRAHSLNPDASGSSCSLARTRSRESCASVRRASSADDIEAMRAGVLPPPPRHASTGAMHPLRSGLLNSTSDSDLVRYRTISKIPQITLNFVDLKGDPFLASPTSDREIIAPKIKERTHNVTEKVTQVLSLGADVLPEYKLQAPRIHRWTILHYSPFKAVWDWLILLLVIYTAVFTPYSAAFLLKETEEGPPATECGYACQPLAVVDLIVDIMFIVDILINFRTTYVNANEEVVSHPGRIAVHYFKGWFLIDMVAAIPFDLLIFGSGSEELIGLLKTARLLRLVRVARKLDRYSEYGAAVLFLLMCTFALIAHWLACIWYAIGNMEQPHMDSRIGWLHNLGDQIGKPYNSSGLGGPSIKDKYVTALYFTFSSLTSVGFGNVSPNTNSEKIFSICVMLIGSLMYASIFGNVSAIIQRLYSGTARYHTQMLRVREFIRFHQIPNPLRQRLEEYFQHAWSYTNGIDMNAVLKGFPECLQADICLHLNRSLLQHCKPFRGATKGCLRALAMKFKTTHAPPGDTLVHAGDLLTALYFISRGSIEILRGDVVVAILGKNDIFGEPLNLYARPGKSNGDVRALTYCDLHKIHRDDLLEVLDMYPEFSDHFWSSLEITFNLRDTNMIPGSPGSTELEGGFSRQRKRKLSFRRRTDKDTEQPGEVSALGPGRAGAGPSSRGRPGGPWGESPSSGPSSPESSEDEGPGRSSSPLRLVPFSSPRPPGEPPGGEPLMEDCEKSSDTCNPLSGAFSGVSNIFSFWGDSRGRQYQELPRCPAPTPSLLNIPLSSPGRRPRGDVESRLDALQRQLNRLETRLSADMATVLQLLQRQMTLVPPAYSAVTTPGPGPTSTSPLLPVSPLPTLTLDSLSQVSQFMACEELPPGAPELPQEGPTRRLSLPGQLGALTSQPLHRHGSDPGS
Description: For the purpose of risk evaluation of QT interval extension of electrocardiogram, the activity on delayed rectification K^+ current (IKr), which plays an important role in a cardiac ventricle repolarization process, was examined using the HEK293 cell that was made to express human ether-a-go-go related gene (hERG) channel.
Using an automatic patch-clamp system (PatchXpress 7000A, Axon Instruments Inc.), by a whole-cell patch-clamp method, after the cell was maintained at a membrane potential of −80 mV, IKr induced upon applying depolarizing stimulation of +50 mV for 2 seconds and further applying repolarizing stimulation of −50 mV for 2 seconds was recorded. After generated electric current became stable, a test substance dissolved at an intended concentration in extracellular fluid (137 mmol/L NaCl, 4 mmol/L KCl, 1.8 mmol/L CaCl2.2H2O, 1 mmol/L MgCl2.6H2O, 10 mmol/L glucose, 10 mmol/L HEPES (4-(2-hydroxyethyl)-1-piperazineethanesulfonic acid), pH=7.4) was applied to the cell for 10 minutes under room temperature condition. From the obtained IKr, the absolute value of the maximum tail current was measured using analysis software (DataXpress ver. 1, Molecular Devices Corporation) and the value of the electric current in a maintained membrane potential as baseline. Moreover, an inhibition ratio for the maximum tail current prior to the application of the test substance was calculated and then compared with a group of media-application (0.1% dimethylsulfoxide solution) to evaluate influence of the test substance on IKr.

[5] = Metabolic stability test, pooled human liver microsome; format: in vitro ADME; settings: 2 μmol/L compound; human liver microsome 0.5 mg protein/mL, NADPH, 37° C.
Method: After a subject compound was reacted for a certain time using a commercially available pooled human liver microsome, a reacted sample and an unreacted sample are compared to calculate a survival ratio, and then the degree of metabolism in the liver was evaluated.
0.2 mL of a buffer solution (50 mmol/L of Tris-HCl in pH 7.4, 150 mmol/L of potassium chloride, and 10 mmol/L of magnesium chloride) containing a human liver microsome of 0.5 mg protein/mL was reacted in the presence of 1 mmol/L NADPH at 37° C. for 0 or 30 minutes (oxidative reaction). After reacting, 50 μL of the reaction solution was added to 100 μL of a solution of methanol/acetonitrile (1/1 (v/v)), mixed, and then centrifuged at 3000 rpm for 15 minutes. The test compound in the supernatant was quantitated with LC/MS/MS. The amount of the compound at a reaction time of 0 minute was defined as 100% and, based on that, the percentage of the test compound remained after reacting for 30 minutes was calculated.

T1 sequence (P48736 whole entry): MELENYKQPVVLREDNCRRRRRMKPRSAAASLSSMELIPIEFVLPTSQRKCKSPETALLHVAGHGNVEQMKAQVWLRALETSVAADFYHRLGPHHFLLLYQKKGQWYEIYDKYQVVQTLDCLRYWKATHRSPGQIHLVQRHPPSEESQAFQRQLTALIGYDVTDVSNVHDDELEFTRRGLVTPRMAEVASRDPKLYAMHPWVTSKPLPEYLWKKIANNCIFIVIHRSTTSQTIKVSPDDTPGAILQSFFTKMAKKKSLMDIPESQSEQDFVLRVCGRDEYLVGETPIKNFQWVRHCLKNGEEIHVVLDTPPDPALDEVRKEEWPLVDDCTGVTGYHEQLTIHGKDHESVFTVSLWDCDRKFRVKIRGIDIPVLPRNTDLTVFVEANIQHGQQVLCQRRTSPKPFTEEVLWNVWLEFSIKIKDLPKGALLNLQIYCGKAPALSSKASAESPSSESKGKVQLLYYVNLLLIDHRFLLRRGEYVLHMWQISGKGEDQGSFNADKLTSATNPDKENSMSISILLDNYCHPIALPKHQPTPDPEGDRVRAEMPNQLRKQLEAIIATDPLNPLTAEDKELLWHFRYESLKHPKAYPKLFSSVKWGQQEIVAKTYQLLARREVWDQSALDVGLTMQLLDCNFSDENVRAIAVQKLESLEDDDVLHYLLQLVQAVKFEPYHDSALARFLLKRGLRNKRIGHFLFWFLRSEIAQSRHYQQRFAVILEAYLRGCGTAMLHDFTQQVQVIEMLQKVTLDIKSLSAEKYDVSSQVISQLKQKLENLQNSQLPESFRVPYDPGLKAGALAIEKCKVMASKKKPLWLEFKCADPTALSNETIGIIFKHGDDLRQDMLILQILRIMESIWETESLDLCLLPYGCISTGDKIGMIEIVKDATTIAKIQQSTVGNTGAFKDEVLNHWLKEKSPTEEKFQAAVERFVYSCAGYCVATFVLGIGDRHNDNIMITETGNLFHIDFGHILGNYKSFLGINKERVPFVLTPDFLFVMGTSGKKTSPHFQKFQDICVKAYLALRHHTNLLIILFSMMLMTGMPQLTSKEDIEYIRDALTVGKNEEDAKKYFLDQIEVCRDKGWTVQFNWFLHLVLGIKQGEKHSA

`O=C(O)c1ccc(-c2ccc3c(n2)N(C(=O)Nc2cccnc2)CCO3)cc1` [Compound I-208] gave a Ki (PI-3 kinase γ [1]) of 0.031 µM and an inhibition at 50 µM (PI-3 kinase γ [2]) of at least 95%.
In the case of `O=C(O)COc1ccccc1Nc1ccc2c(n1)N(C(=O)Nc1ccccc1)CCO2` [Compound I-248], the Ki (PI-3 kinase γ [1]) is reported as 0.025 µM, the solubility at 16 h [3] is reported as over 50 µM and the inhibition at 50 µM (PI-3 kinase γ [2]) is reported as at least 95%.
For `O=C(O)c1ccc(-c2ccc3c(n2)N(C(=O)Nc2ccccc2)CCO3)s1` [Compound I-109], the solubility at 16 h [3] was over 50 µM, the inhibition at 50 µM (PI-3 kinase γ [2]) was at least 95% and the “hERG inhibition ratio for the maximum tail current (IKr)” value [4] was 1%.
With `O=C(O)c1ccc(Nc2cnc3c(c2)OCCN3C(=O)Nc2ccccc2)cc1` [Compound I-139] the “percentage of test compound remained after reacting for 30 minutes” value [5] was 83%, the solubility at 16 h [3] was over 50 µM and the inhibition at 50 µM (PI-3 kinase γ [2]) was at least 95%. For the same compound, the “hERG inhibition ratio for the maximum tail current (IKr)” value [4] was 8.7%.
With `O=C(O)c1ccc(Nc2ccc3c(n2)N(C(=O)Nc2ccccc2)CCO3)cc1` [Compound I-146] the “percentage of test compound remained after reacting for 30 minutes” value [5] was 100%, the Ki (PI-3 kinase γ [1]) was 0.046 µM and the inhibition at 50 µM (PI-3 kinase γ [2]) was at least 95%.
`CC1(C/C=C/c2ccccc2)SC(N2CCOc3cccnc32)=NC1=O` (stereo not drawn) [Compound I-6] showed an inhibition at 50 µM (PI-3 kinase γ [2]) of 81%.
Compound `O=C(O)CC(=O)Nc1ccc2c(n1)N(C(=O)Nc1ccccc1)CCO2` [Compound I-123] has an inhibition at 50 µM (PI-3 kinase γ [2]) of at least 95%.
Work on `O=C(O)Cc1cccc(-c2ccc3c(n2)N(C(=O)Nc2ccccc2)CCO3)c1` [Compound I-152] yielded an inhibition at 50 µM (PI-3 kinase γ [2]) of at least 95%.
For `O=C(Nc1ccccc1)N1CCOc2cc(Nc3ccc(CN4CCS(=O)(=O)CC4)cc3)cnc21` [Compound I-325], the inhibition at 50 µM (PI-3 kinase γ [2]) was 82%.
`O=C(Nc1ccccc1)N1CCOc2cc(Nc3ccc(S(=O)(=O)N4CCOCC4)cc3)cnc21` [Compound I-323] gave an inhibition at 50 µM (PI-3 kinase γ [2]) of 89%.
In the case of `O=C(O)C1CCN(c2ccc3c(n2)N(C(=O)Nc2ccccc2)CCO3)CC1` [Compound I-220], the inhibition at 50 µM (PI-3 kinase γ [2]) is reported as at least 95%.
For `O=C(O)c1ccc(-c2ccc3c(n2)OCCN3C(=O)Nc2ccccc2C(=O)O)cc1` [Compound I-259], the inhibition at 50 µM (PI-3 kinase γ [2]) was at least 95%.
For `O=C(Nc1ccccc1)N1CCOc2ccc(-c3nccs3)nc21` [Compound I-83], the inhibition at 50 µM (PI-3 kinase γ [2]) was 92%.
With `CC(C)(C)OC(=O)NCCOc1cc(C(=O)O)ccc1Nc1ccc2c(n1)N(C(=O)Nc1ccccc1)CCO2` [Compound I-226] the inhibition at 50 µM (PI-3 kinase γ [2]) was at least 95%.
Compound `CCN(CC)c1ccc(Nc2cnc3c(c2)OCCN3C(=O)Nc2ccccc2)cc1` [Compound I-310] has an inhibition at 50 µM (PI-3 kinase γ [2]) of at least 95%.
In the case of `COc1ccc(-c2ccc3c(n2)N(C2=NC(=O)C(C)(C)S2)CCO3)cc1OC` [Compound I-330], the Ki (PI-3 kinase γ [1]) is reported as 0.027 µM and the inhibition at 50 µM (PI-3 kinase γ [2]) is reported as 95%.
Compound `COc1ccc(-c2ccc3c(n2)N(C(=O)Nc2ccccc2)CCO3)cc1OC` [Compound I-99] has an inhibition at 50 µM (PI-3 kinase γ [2]) of at least 95%.
`CC(C)(C)OC(=O)N1CCC(Nc2ccc3c(n2)N(C(=O)Nc2ccccc2)CCO3)CC1` [Compound I-231] gave an inhibition at 50 µM (PI-3 kinase γ [2]) of at least 95%.
For `O=C(Nc1ccccc1)N1CCOc2ccc(-c3ccn[nH]3)nc21` [Compound I-187], the inhibition at 50 µM (PI-3 kinase γ [2]) was at least 95%.
`O=C(O)CCCc1ccc2c(n1)N(C(=O)Nc1ccccc1)CCO2` [Compound I-95] gave an inhibition at 50 µM (PI-3 kinase γ [2]) of at least 95%.
Work on `CC(C)(C)OC(=O)COc1cccc(Nc2ccc3c(n2)N(C(=O)Nc2ccccc2)CCO3)c1` [Compound I-233] yielded an inhibition at 50 µM (PI-3 kinase γ [2]) of at least 95%.
`CC(C)(C)OC(=O)CNC(=O)c1cccc(Nc2ccc3c(n2)N(C(=O)Nc2ccccc2)CCO3)c1` [Compound I-272] showed an inhibition at 50 µM (PI-3 kinase γ [2]) of at least 95%.
